Results on seven compounds are retold here after PubChem BioAssay (NCI).

Common to all, as to experiment: growth of human tumour cells (NCI), 48 h
For assay [1], the system named is CAKI-1 renal.
Assay [2] deals with SK-MEL-5 melanoma.
Assay [3] deals with PC-3 prostate.
For assay [4], the system named is NCI-H460 lung.
For assay [5], the system named is HCT-15 colon.
Assay [6] deals with ACHN renal.
The test system of assay [7] is EKVX NSCLC.
For assay [8], the system named is UACC-62 melanoma.
Assay [9] has as its system HS 578T breast.
For assay [10], the system named is A498 renal.

The structures appear in SMILES notation. Where “and” joins values, the source holds several entries; their conditions need not be identical. Equal values may be shown once.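 Growth conditions: 96-well plates. Treatment: test compound, 48 hours, 5 concentrations. Analysis: linear interpolation between bracketing concentrations; unreached endpoints set to highest concentration. At the GI50, growth is halved. TGI denotes the concentration required for complete inhibition of growth.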

`COc1ccc(/C=C2\CCC/C(=C\c3ccc(OC)c(OC)c3)C2=O)cc1OC`: the GI50 is 1.13 µM in [1]; 1.88 µM in [2]; 2.83 µM in assay [3]; 1.61 µM in [4]; 4.96 µM in [5]; 5.04 µM in assay [6]. Besides, the GI50 in [7] is 14 µM; in assay [8], 7.63 µM; in assay [9], 7.95 µM; in assay [10] it was 3.88 µM. Moreover, the TGI is 8.16 µM in [1]; above 32.5 µM in assay [2]; above 32.5 µM in [3]; above 32.5 µM in [4]; above 32.5 µM in assay [5]; above 32.5 µM in [6]. The TGI in assay [7], in [8], in assay [9] and in assay [10] was above 32.5 µM in each case.

On to `CC[C@H](C)[C@H](NC(=O)[C@H]1CCCCN1C)C(=O)N(C)[C@H](C[C@@H](OC(C)=O)c1nc(C(=O)NC23CC(C(=O)OC)(C2)C3)cs1)C(C)C`, for which the GI50 was 0.00485 µM in assay [1]; 0.000748 µM and 0.00325 µM in assay [2]; 0.00129 µM and 0.00325 µM in [3]; 0.0007 µM and 0.00325 µM in [4]; 0.00333 µM and 0.00325 µM in assay [5]; 0.00806 µM and 0.00325 µM in [6]. Moreover, the GI50 in [7] was 0.0475 µM and 0.0175 µM; in [8] it was 0.000614 µM and 0.00325 µM; in assay [9], 0.000388 µM and 0.00325 µM; in [10], 0.00723 µM and 0.00325 µM. In addition, the TGI was 0.0299 µM and 0.0384 µM in assay [2]; above 32.5 µM in [3]; above 32.5 µM in [4]; above 32.5 µM in assay [5]; above 32.5 µM in assay [6]; above 32.5 µM in assay [7]. Also, the values for the TGI in assay [8], in assay [9] and in assay [10] were above 32.5 µM, above 32.5 µM and 0.277 µM, respectively.

As to `CCCCCCCCCCCC[C@@H](O)[C@H]1CC[C@H]([C@H](O)CC[C@H](O)[C@@H]2CC[C@@H](CCCCCCCC3=C[C@H](C)OC3=O)O2)O1`, the TGI in [1] is above 50 µM; in assay [2], 7.93 µM and > 50 µM; in [3], above 50 µM; in [4] it was above 50 µM; in assay [5], above 50 µM; in assay [6], above 50 µM. The TGI in assay [7], in [8], in assay [9] and in assay [10] was above 50 µM each time. For the same compound, the GI50 in assay [2] was 1.3 µM; in assay [3] it was 3.3 µM; in [4], above 50 µM; in assay [5] it was 5.07 µM; in [6], 2.51 µM; in assay [7], 1.69 µM. For the same compound, the GI50 in [8] and in assay [9] was above 50 µM throughout.

In the case of `OCCCCC#Cc1ccccc1C#Cc1cccc(C(F)(F)F)c1`, the GI50 in assay [1] is 21.3 µM; in assay [2], 17.8 µM; in assay [3] it was 18.2 µM; in [4] it was 18.4 µM; in assay [5], 16.3 µM; in assay [6] it was 18.3 µM. In addition, the GI50 in [7] was 17.9 µM; in assay [8], 15.9 µM; in [9], 29.7 µM; in [10], 18.2 µM. Moreover, the TGI in [1] was determined as 36.5 µM; in assay [2], 32.7 µM; in [3], 33.7 µM; in assay [4] it was 40.6 µM; in assay [5], 30.8 µM; in assay [6] it was 32.4 µM. In addition, the TGI in [7] is 34.7 µM; in [8] it was 29.5 µM; in assay [9], 71.3 µM; in [10], 33.1 µM.

In the case of `CC(=O)Oc1c(C(=O)[O-])cc(C(C)C)cc1C(C)C.CC(=O)Oc1c(C(=O)[O-])cc(C(C)C)cc1C(C)C.CC(=O)Oc1c(C(=O)[O-])cc(C(C)C)cc1C(C)C.CC(=O)Oc1c(C(=O)[O-])cc(C(C)C)cc1C(C)C.[Cu+2].[Cu+2]`, the GI50 is above 100 µM in assay [1]; 18 µM in assay [2]; 57.3 µM in [3]; 34.8 µM in assay [4]; 27.5 µM in [5]; 75.2 µM in assay [6]. Also, the GI50 in assay [7] was 37.5 µM; in [8], 18.6 µM; in [9], 50.5 µM; in assay [10], 16 µM. In addition, the TGI was above 100 µM in [1]; 32.9 µM in assay [2]; above 100 µM in assay [3]; above 100 µM in assay [4]; above 100 µM in assay [5]; above 100 µM in [6]. For the same compound, the TGI was 73.2 µM in assay [7], 39.9 µM in [8], above 100 µM in assay [9] and 32.8 µM in assay [10].

Regarding `CC(C)[C@@H]1CC[C@]2(CO2)[C@@H]2C(=O)OCC(C(=O)O)=C[C@H]21`, the GI50 in assay [1] was 0.411 µM; in assay [2] it was 0.348 µM; in assay [3], 0.677 µM; in assay [4] it was 0.402 µM; in assay [5], 0.378 µM; in assay [6], 0.43 µM. Besides, the GI50 in assay [7] is 5.17 µM; in [8] it was 0.221 µM; in [9], 0.288 µM; in [10], 0.203 µM. Moreover, the TGI in assay [1] is above 100 µM; in assay [2] it was 1.51 µM; in assay [3], above 100 µM; in assay [4] it was above 100 µM; in assay [5] it was above 100 µM; in [6], above 100 µM. The TGI in assay [7] was above 100 µM; in assay [8] it was 0.578 µM; in assay [9] it was 2.3 µM; in assay [10], 0.738 µM.

Take `Cc1ccc(S(=O)(=O)NCCCCC(N)C(=O)O)cc1` (configuration not stated): the TGI in assay [1], in [2], in [3], in [4], in assay [5] and in [6] was above 100 µM in each case. Further, the TGI in assay [7], in assay [8], in assay [9] and in assay [10] was above 100 µM in each case.
